Test results reported in paper PMC6199744, “Development of Chemical Proteomics for the Folateome and Analysis of the Kinetoplastid Folateome” (ACS Infectious Diseases, 2018).
Where two headings read alike, the source gives them in different places.

How the values were obtained:
Assay type in all cases: binding
[1] = biological target: T1, HeLa cell extract proteins (Homo sapiens, UniProt P52948)
T1 construct: endogenous in cells; host or cells: HeLa cell extract

[2] = biological target: T2, HeLa cell extract proteins (Homo sapiens, UniProt P00491)
T2 construct: endogenous in cells; host or cells: HeLa cell extract
T2 sequence (P00491 1-289): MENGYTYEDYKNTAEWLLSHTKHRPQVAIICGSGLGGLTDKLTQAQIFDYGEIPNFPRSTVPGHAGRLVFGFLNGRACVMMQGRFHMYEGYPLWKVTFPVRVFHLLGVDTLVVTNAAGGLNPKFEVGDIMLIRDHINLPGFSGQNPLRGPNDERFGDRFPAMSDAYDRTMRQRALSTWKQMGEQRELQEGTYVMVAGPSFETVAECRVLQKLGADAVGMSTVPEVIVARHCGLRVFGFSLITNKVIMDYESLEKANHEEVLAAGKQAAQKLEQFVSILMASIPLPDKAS

[3] = biological target: T3, HeLa cell extract proteins (Homo sapiens, UniProt O43747)
T3 construct: endogenous in cells; host or cells: HeLa cell extract
T3 sequence (O43747 1-822): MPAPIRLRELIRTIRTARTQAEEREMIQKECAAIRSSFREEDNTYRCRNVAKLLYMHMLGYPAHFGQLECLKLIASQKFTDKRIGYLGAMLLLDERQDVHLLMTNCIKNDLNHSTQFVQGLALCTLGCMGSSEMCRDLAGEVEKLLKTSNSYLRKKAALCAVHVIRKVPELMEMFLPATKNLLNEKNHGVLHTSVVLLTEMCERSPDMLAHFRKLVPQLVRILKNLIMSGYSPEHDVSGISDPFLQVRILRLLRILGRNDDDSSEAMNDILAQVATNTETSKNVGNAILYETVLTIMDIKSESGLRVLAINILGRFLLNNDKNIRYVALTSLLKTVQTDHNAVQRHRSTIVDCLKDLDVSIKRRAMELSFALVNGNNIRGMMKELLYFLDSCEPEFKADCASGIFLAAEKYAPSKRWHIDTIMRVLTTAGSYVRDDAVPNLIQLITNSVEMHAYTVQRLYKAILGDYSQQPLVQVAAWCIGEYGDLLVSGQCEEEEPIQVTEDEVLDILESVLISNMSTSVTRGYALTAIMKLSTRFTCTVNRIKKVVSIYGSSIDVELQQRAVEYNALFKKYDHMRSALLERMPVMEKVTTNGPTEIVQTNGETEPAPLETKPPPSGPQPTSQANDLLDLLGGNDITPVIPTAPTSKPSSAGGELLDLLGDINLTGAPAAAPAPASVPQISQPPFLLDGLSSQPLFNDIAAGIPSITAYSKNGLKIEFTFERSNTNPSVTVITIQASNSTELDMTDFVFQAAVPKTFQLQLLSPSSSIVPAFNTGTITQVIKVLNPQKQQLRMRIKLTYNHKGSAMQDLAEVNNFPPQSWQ

[4] = biological target: T4, HeLa cell extract proteins (Homo sapiens, UniProt O75694)
T4 construct: endogenous in cells; host or cells: HeLa cell extract
T4 sequence (O75694 1-1391): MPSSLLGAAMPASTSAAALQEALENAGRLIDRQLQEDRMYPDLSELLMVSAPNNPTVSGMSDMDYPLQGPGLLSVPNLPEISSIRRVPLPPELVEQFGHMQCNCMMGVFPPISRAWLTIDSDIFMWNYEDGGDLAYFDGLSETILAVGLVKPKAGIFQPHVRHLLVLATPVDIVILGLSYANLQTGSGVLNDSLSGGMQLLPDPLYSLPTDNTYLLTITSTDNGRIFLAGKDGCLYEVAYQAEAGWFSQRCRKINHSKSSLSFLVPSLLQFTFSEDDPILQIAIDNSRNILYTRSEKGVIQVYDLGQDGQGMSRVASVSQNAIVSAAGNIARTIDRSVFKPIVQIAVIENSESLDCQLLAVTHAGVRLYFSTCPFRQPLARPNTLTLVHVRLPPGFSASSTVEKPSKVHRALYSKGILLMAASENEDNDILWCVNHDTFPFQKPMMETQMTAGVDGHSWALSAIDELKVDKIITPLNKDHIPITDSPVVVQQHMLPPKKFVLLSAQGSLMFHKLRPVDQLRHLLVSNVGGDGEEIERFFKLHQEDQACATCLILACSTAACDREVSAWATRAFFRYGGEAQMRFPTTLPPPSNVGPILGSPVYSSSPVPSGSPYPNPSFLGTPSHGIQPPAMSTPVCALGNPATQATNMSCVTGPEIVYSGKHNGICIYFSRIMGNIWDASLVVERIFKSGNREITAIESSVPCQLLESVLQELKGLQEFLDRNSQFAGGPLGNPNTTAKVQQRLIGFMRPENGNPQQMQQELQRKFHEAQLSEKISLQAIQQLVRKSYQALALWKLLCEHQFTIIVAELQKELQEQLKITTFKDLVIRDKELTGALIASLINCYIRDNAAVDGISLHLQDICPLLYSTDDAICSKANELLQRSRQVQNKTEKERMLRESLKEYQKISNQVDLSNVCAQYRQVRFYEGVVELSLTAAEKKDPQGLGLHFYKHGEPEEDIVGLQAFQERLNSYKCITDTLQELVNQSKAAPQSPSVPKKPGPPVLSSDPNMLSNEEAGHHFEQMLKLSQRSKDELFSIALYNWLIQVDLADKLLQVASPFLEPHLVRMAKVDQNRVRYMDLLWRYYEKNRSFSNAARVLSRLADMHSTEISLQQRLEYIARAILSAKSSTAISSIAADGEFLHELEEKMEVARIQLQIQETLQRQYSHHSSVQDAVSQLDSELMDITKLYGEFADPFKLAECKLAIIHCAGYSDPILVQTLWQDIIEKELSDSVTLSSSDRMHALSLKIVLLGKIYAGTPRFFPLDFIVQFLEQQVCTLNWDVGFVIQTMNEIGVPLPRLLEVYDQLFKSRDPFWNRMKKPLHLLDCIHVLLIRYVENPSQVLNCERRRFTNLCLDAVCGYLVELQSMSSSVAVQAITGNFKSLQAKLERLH

[5] = biological target: T5, HeLa cell extract proteins (Homo sapiens, UniProt P14678)
T5 construct: endogenous in cells; host or cells: HeLa cell extract

T1 sequence (P52948 whole entry): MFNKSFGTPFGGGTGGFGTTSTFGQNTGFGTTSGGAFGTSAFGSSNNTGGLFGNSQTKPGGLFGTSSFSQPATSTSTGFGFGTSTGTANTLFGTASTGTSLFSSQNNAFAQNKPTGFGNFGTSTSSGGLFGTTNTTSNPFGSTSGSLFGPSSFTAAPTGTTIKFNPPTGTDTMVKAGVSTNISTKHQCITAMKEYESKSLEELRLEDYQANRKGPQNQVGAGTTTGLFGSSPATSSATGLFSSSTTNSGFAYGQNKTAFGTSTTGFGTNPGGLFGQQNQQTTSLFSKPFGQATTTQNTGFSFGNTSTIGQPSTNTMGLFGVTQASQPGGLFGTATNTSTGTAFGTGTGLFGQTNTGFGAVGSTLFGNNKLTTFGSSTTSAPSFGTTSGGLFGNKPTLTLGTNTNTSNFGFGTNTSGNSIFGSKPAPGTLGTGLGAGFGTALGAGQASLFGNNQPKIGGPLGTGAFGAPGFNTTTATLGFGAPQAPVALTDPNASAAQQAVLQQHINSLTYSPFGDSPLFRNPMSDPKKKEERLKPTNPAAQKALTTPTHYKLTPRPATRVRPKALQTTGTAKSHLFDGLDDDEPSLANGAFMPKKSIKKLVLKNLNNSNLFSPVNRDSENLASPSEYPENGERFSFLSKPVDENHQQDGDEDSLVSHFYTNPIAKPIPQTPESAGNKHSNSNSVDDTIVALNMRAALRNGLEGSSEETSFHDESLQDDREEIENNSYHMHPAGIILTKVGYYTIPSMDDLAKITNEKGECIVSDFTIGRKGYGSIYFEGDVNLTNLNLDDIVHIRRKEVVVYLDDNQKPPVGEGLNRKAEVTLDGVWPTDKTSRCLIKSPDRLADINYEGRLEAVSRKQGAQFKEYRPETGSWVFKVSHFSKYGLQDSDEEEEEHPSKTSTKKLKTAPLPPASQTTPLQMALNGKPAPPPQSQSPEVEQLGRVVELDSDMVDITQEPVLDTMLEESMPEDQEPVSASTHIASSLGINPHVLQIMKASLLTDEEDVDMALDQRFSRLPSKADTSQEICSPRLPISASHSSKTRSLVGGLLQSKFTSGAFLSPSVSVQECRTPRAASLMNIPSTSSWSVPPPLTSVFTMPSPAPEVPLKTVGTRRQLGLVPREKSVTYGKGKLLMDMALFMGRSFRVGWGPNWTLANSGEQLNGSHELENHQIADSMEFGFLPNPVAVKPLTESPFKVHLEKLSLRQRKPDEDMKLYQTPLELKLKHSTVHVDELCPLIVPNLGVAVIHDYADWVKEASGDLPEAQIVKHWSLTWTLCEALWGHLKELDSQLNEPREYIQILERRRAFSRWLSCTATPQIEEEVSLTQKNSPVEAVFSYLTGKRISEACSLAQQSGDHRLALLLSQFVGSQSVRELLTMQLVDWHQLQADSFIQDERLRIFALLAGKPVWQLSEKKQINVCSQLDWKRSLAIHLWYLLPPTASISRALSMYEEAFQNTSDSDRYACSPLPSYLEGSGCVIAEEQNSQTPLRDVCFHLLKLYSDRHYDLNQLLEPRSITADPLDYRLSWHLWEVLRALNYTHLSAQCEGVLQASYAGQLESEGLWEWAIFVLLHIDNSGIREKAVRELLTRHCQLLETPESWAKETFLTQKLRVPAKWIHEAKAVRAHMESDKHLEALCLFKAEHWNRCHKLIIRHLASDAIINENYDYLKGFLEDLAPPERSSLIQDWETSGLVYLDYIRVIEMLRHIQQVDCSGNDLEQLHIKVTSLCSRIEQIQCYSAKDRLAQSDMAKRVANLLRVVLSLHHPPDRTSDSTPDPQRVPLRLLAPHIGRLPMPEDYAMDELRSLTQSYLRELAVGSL

Row | Structure (SMILES) | fold changes relative to vehicle control ([1]; HeLa, protein NUP98) | fold changes relative to vehicle control ([2]; protein NP, HeLa) | fold changes relative to vehicle control ([3]; HeLa, protein AP1G1) | fold changes relative to vehicle control ([4]; HeLa, protein NUP155) | fold changes relative to vehicle control ([5]; HeLa, captured protein SNRPB) | fold changes relative to vehicle control [1] | fold changes relative to vehicle control [2] | fold changes relative to vehicle control [3] | fold changes relative to vehicle control [4] | fold changes relative to vehicle control [5] | fold changes relative to vehicle control ([1]; captured protein NUP98, HeLa) | fold changes relative to vehicle control ([3]; protein AP1G1, HeLa) | fold changes relative to vehicle control ([5]; protein SNRPB, HeLa)
1 | Nc1nc2c(c(=O)[nH]1)N(C=O)C(CNc1ccc(C(=O)N[C@@H](CCC(=O)O)C(=O)O)cc1)CN2 (some centres unmarked) [LEU, leucovorin] | 0.93 | 0.9 | 1.1 | 0.87 | 1.16 |  |  |  |  |  |  |  | 
2 | Nc1nc2[nH]cc(CCc3ccc(C(=O)N[C@@H](CCC(=O)O)C(=O)O)cc3)c2c(=O)[nH]1 [PTX, pemetrexed] |  |  |  |  |  | 1 | 0.89 | 1.09 | 0.92 | 1.12 |  |  | 
3 | CCCCCCOc1ccc(Cc2cnc(N)nc2N)cc1 [compound 1] |  | 1.16 |  | 1.04 |  |  |  |  |  |  | 1.05 | 1.19 | 1.17
4 | CCCCCCOc1cccc(Cc2cnc(N)nc2N)c1 [compound 2] |  | 1.4 |  | 1.01 |  |  |  |  |  |  | 1.11 | 1.51 | 1.46
5 | Nc1nc2cccc(-c3ccccc3)c2n1Cc1ccc(Cl)c(Cl)c1 [compound 3] |  | 0.96 |  | 1.2 |  |  |  |  |  |  | 1.06 | 0.97 | 1.04
6 | NCCOCCOCC(=O)Nc1nc2ncc(CNc3ccc(C(=O)NC(CCC(=O)O)C(=O)O)cc3)nc2c(=O)[nH]1 (centres unmarked) [compound 6] | 1.21 | 1.08 | 1.17 | 0.92 | 1.16 |  |  |  |  |  |  |  | 
7 | NCCCNc1ccc(C(=O)NC(CCC(=O)O)C(=O)O)cc1 (centres unmarked) [compound 7] | 1.05 | 0.89 | 1.17 | 1.03 | 1.16 |  |  |  |  |  |  |  | 
